Some test systems named below: UO-31 renal; SK-MEL-5 melanoma; SK-MEL-2 melanoma; MCF7 breast; LOX IMVI melanoma; OVCAR-5 ovarian; SK-OV-3 ovarian; A498 renal; TK-10 renal; PC-3 prostate.
What all share (experiment): NCI-60 cell line screen, 48 h

Values joined by “and” are separate entries in the source; they are usually repeats but may differ in a detail not shown here. Equal entries are not always repeated.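 Briefly, cells in 96-well plates were exposed to five compound concentrations for 48 h, and endpoints were estimated by linear interpolation. Abbreviation: GI50, concentration required for 50% inhibition of growth. TGI denotes the concentration required for complete inhibition of growth.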

For `Nc1c2c(c(O)c3c1=C(CO)C=N3)=NCCS2=O` (centres undefined), the GI50 was 1.68 µM in the experiment with UO-31 renal; 1.13 µM with SK-MEL-5 melanoma; 1.45 µM in the experiment on SK-MEL-2 melanoma; 0.63 µM with MCF7 breast; 1.58 µM in the experiment with LOX IMVI melanoma; 1.66 µM in the experiment with OVCAR-5 ovarian. The GI50 with SK-OV-3 ovarian was 3.11 µM; in the experiment on A498 renal, 12.2 µM; with TK-10 renal, 17.5 µM; in the experiment with PC-3 prostate it was 2.19 µM. Also, the TGI in the experiment on UO-31 renal stood at 3.5 µM; in the experiment with SK-MEL-5 melanoma, 2.36 µM; in the experiment on SK-MEL-2 melanoma, 3.8 µM; in the experiment on MCF7 breast, 2.83 µM; in the experiment on LOX IMVI melanoma it was 4.03 µM; in the experiment with OVCAR-5 ovarian, 3.91 µM. In addition, the TGI amounted to 10.9 µM with SK-OV-3 ovarian, 25.3 µM in the experiment on A498 renal, 31.8 µM in the experiment with TK-10 renal and 6.13 µM in the experiment on PC-3 prostate.

For the compound `COc1ccc(/C=C2\CCC(CN(C)C)C2=O)cc1` (centres undefined), the TGI in the experiment on UO-31 renal came to 15.5 µM; with SK-MEL-5 melanoma, 16.3 µM; in the experiment with SK-MEL-2 melanoma it was 17.6 µM; in the experiment with MCF7 breast, 6.03 µM; in the experiment with LOX IMVI melanoma, 3.63 µM; with OVCAR-5 ovarian, 30 µM. For the same compound, the TGI with SK-OV-3 ovarian worked out at 31.4 µM; in the experiment on A498 renal, 28.9 µM; with TK-10 renal it was 14 µM; in the experiment with PC-3 prostate, 19.6 µM.

For `CN(CC(=O)O)Cc1c[nH]c2ccccc12`, the TGI in the experiment on UO-31 renal, in the experiment on SK-MEL-5 melanoma, in the experiment on SK-MEL-2 melanoma, in the experiment on MCF7 breast, with LOX IMVI melanoma and in the experiment with OVCAR-5 ovarian was above 100 µM in each case. Also, the TGI in the experiment with SK-OV-3 ovarian, with A498 renal, with TK-10 renal and in the experiment with PC-3 prostate was above 100 µM in each case.

As to `O=c1c(-c2nc3ccccc3[nH]2)cc2ccccc2n1Cc1cn(Cc2ccc(F)cc2)nn1`, the GI50 in the experiment with UO-31 renal was 0.327 µM; with SK-MEL-5 melanoma it was 0.164 µM; with SK-MEL-2 melanoma it was 0.348 µM; in the experiment on MCF7 breast, 0.0329 µM; in the experiment on LOX IMVI melanoma, 0.084 µM; with OVCAR-5 ovarian, 0.287 µM. The GI50 in the experiment on SK-OV-3 ovarian was 0.328 µM; in the experiment on A498 renal, 0.127 µM; with TK-10 renal it was 0.793 µM; in the experiment on PC-3 prostate, 0.153 µM. The TGI in the experiment with UO-31 renal was above 100 µM; in the experiment with SK-MEL-5 melanoma it was above 85.7 µM; in the experiment on SK-MEL-2 melanoma it was 10.2 µM; in the experiment with MCF7 breast, above 55.1 µM; with LOX IMVI melanoma it was above 100 µM; in the experiment on OVCAR-5 ovarian, 7.84 µM. Besides, the TGI is 4.63 µM in the experiment on SK-OV-3 ovarian, 0.716 µM in the experiment with A498 renal, 15.8 µM in the experiment with TK-10 renal and above 100 µM in the experiment with PC-3 prostate.

Take `COC(=O)c1cccc(COc2ccc([N+](=O)[O-])cc2Cl)c1`: the TGI in the experiment on UO-31 renal, with SK-MEL-5 melanoma, in the experiment with SK-MEL-2 melanoma, in the experiment on MCF7 breast, in the experiment with LOX IMVI melanoma and in the experiment with OVCAR-5 ovarian was above 100 µM throughout. Also, the TGI in the experiment with SK-OV-3 ovarian, in the experiment with A498 renal, in the experiment with TK-10 renal and in the experiment with PC-3 prostate was above 100 µM throughout.

For `O=c1c(Br)ccc(Br)cc1Br`, the GI50 is 1.51 µM in the experiment with UO-31 renal; 3.19 µM with SK-MEL-5 melanoma; 2.39 µM in the experiment on SK-MEL-2 melanoma; 3.81 µM in the experiment with MCF7 breast; 0.897 µM in the experiment on LOX IMVI melanoma; 1.76 µM in the experiment with OVCAR-5 ovarian. Also, the GI50 in the experiment with SK-OV-3 ovarian is 15.7 µM; in the experiment with A498 renal, 14.7 µM; in the experiment with TK-10 renal, 1.55 µM; with PC-3 prostate, 1.85 µM. Also, the TGI was 2.95 µM in the experiment with UO-31 renal; 10.9 µM in the experiment on SK-MEL-5 melanoma; 5.85 µM in the experiment on SK-MEL-2 melanoma; 77.6 µM in the experiment with MCF7 breast; 2.35 µM in the experiment on LOX IMVI melanoma; 3.46 µM with OVCAR-5 ovarian. Besides, the TGI in the experiment with SK-OV-3 ovarian stood at 29.2 µM; with A498 renal, 28.5 µM; in the experiment with TK-10 renal, 5.23 µM; in the experiment with PC-3 prostate, 3.95 µM.

In the case of `COc1nc(C(Cl)(Cl)Cl)c(Cl)c(OC)c1Cl`, the TGI is > 64.3 µM and 75.4 µM with UO-31 renal; 34.5 µM and 83.2 µM with SK-MEL-5 melanoma; > 31.6 µM and 70.8 µM in the experiment with SK-MEL-2 melanoma; 66.8 µM in the experiment with MCF7 breast; 62.6 µM in the experiment on LOX IMVI melanoma; > 72.4 µM and 78.7 µM with OVCAR-5 ovarian. Moreover, the TGI in the experiment on SK-OV-3 ovarian was 26.9 µM; in the experiment with A498 renal, > 55.7 µM and 96.2 µM; in the experiment on TK-10 renal, 94.5 µM; in the experiment with PC-3 prostate, 73.6 µM. In addition, the GI50 in the experiment with SK-MEL-5 melanoma is 19.6 µM; in the experiment with SK-OV-3 ovarian, above 64.2 µM; in the experiment with A498 renal, above 35.9 µM; in the experiment on TK-10 renal, above 91.6 µM.

Turning to `CC(=O)O[C@H]1CC[C@@]2(C)[C@@H](CC[C@@H]3[C@@H]2CC(=O)[C@@]2(C)[C@H]3C[C@@H]3CC(C)=CC(=O)[C@@H]32)C1`, the TGI in the experiment with UO-31 renal, in the experiment on SK-MEL-5 melanoma, in the experiment with SK-MEL-2 melanoma, with MCF7 breast, in the experiment on LOX IMVI melanoma and with OVCAR-5 ovarian was above 100 µM throughout. For the same compound, the TGI in the experiment with SK-OV-3 ovarian, with A498 renal, in the experiment with TK-10 renal and with PC-3 prostate was above 100 µM throughout.

Regarding `COc1cc2c(cc1OC)-c1c(c3ccc([N+](=O)[O-])cc3c(=O)n1CCCBr)C2=O`, the GI50 was 5.23 µM with UO-31 renal; 1.72 µM with SK-MEL-5 melanoma; above 100 µM with SK-MEL-2 melanoma; 0.0985 µM in the experiment on MCF7 breast; 3.9 µM in the experiment on LOX IMVI melanoma; above 100 µM in the experiment with OVCAR-5 ovarian. Besides, the GI50 in the experiment with SK-OV-3 ovarian was 60.5 µM; in the experiment on A498 renal, 43.6 µM; with TK-10 renal, above 100 µM; in the experiment with PC-3 prostate, 59 µM. Besides, the TGI in the experiment with UO-31 renal is above 100 µM; with SK-MEL-5 melanoma, 23.7 µM; with SK-MEL-2 melanoma it was above 100 µM; in the experiment on MCF7 breast, above 100 µM; in the experiment on LOX IMVI melanoma, 42.4 µM; in the experiment on OVCAR-5 ovarian it was above 100 µM. Further, the TGI in the experiment on SK-OV-3 ovarian, in the experiment on A498 renal, in the experiment on TK-10 renal and with PC-3 prostate was above 100 µM in each case.

Regarding `Nc1nc(N)c(N=Nc2ccc([As](=O)(O)O)c(O)c2)c(N)n1`, the TGI with UO-31 renal is above 100 µM; in the experiment on SK-MEL-5 melanoma, above 100 µM; in the experiment with SK-MEL-2 melanoma, above 59.9 µM; with MCF7 breast, above 100 µM; in the experiment on LOX IMVI melanoma it was above 100 µM; in the experiment on OVCAR-5 ovarian, above 100 µM. The TGI is above 100 µM in the experiment with SK-OV-3 ovarian, above 100 µM in the experiment on A498 renal, above 51.8 µM with TK-10 renal and above 100 µM with PC-3 prostate.

Source of the values: PubChem BioAssay (NCI).
